From US20070134261A1, “Effectors of innate immunity” (priority 2001, published 2007)
Values after ≈ are worked out from the molar mass of the structure shown. Read-outs that look alike come from different tables or passages of the source. Residues, ends and D or L forms follow the SMILES beside them.

Columns and labels:
[1] = format: cell-based
[2] = tested on: A549 human epithelial cells; assay: LPS induced IL-8 production in A549 cells (ELISA); format: cell-based; details: 100 ng/ml E. coli O111:B4 LPS, 24 hours
[3] = tested on: CD-1 mice; assay: Lethal endotoxemia in galactosamine-sensitized CD-1 mice; format: in vivo; details: 2 μg LPS; peptide 200 μg/mouse = 8 mg/kg IP 15 min after LPS; 48 hours; control 0
[4] = tested on: A549 human epithelial cells; assay: Induction of chemokines (IL-8, MCP-1) in A549 cells (ELISA); format: cell-based; details: peptide 10 ug/ml, 24 hr
Protocol: The murine macrophage cell line RAW 264.7, THP-1 cells (human monocytes), a human epithelial cell line (A549), human bronchial epithelial cells (16HBEo14), and whole human blood were used. HBE cells were grown in MEM with Earle's. THP-1 cells were grown and maintained in RPMI 1640 medium. The RAW and A549 cell lines were maintained in DMEM supplemented with 10% fetal calf serum. […] DMEM was aspirated from cells grown overnight and replaced with fresh medium. After incubation of the cells with peptide, the release of chemokines into the culture supernatant was determined by ELISA (R&D Systems, Minneapolis, Minn.).

[5] = tested on: RAW 264.7 mouse macrophage cells; format: cell-based; details: Peptide 20 μg/ml; 100 ng/ml E. coli 0111:B4 LPS, 6 h
[6] = tested on: Salmonella; assay: Salmonella infection in BALB/c mice (viable bacteria in spleen); format: in vivo, mouse; details: Table 49; peptide 200 μg IP, 24 h; Control 2.70 ± […] 10^5
Protocol: (§1) BALB/c mice were given 1×10^5 Salmonella and cationic peptide (200 μg) by intraperitoneal injection. The mice were monitored for 24 hours at which point they were euthanized, the spleen removed, homogenized and resuspended in PBS and plated on Luria Broth agar plates with Kanamycin (50 μg/ml). The plates were incubated overnight at 37° C. and counted for viable bacteria (Table 49 and 50). CD-1 mice were given 1×10^8 S. aureus in 5% porcine mucin and cationic peptide (200 μg) by intraperitoneal injection (Table 51). The mice were monitored for 3 days at which point they were euthanized, blood removed and plated for viable counts. CD-1 male mice were given 5.8×10^6 CFU EHEC bacteria and cationic peptide (200 μg) by intraperitoneal (IP) injection and monitored for 3 days (Table 52). […] Many of the cationic peptides were shown not to be directly antimicrobial as tested by the Minimum Inhibitory Concentration (MIC) assay (Table 54).

[7] = tested on: HBE cells; assay: WST-1 assay (cell viability); format: cell-based, human
In short: (§2)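 Both read-outs were colorimetric at OD490 on HBE cells after 24 h with 100 μg of each peptide. The WST-1 assay reported viability through mitochondrial dehydrogenase cleavage of the tetrazolium salt. The LDH assay tested the removed supernatant for enzyme leaked from membrane-damaged cells.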

[8] = tested on: human bronchial epithelial cells (HBE); assay: LDH release assay (Cytotoxicity Detection Kit); format: cell-based; details: 100 μg/ml, 24 hours; no peptide control 1.0 ± 0.05
In short: as §2

[9] = tested on: BALB/c mice; assay: Lethal endotoxemia in galactosamine-sensitized BALB/c mice; format: in vivo; details: 2 μg LPS; peptide 200 μg/mouse = 8 mg/kg IP 15 min after LPS; 48 hours; no peptide 10
[10] = tested on: S. aureus; assay: Murine S. aureus infection model (CD-1 mice); format: in vivo, mouse; details: peptide 200 μg IP; for CFU/ml (blood): 3 days, No Peptide 7.61 ± 1.7 × 10^3; for # Mice Survived (3 days)/Total mice in group: No Peptide 6/8
Protocol: as §1

| Structure (SMILES) | MIC, C. rhod. ([1]; 24 h) | MIC, E. coli ([1]; 24 h) | MIC, P. aerug. ([1]; 24 h) | MIC, S. aureus ([1]; 24 h) | MIC, S. typhim. ([1]; 24 h) | Survival [3] | IL-8 [4] | Inhibition of TNF-α [5] | Viable Bacteria in the Spleen [6] | LDH Release (OD490 nm) [8] | MIC, EHEC ([1]; 24 h) | Survival [9] | CFU/ml (blood) [10] | # Mice Survived (3 days)/Total mice in group [10] | also measured |
| --- | --- | --- | --- | --- | --- | --- | --- | --- | --- | --- | --- | --- | --- | --- | --- |
| CC[C@H](C)[C@H](N)C(=O)N[C@@H](CC(C)C)C(=O)N1CCC[C@H]1C(=O)N[C@@H](Cc1c[nH]c2ccccc12)C(=O)N[C@@H](CCCCN)C(=O)N[C@@H](Cc1c[nH]c2ccccc12)C(=O)N1CCC[C@H]1C(=O)N[C@@H](Cc1c[nH]c2ccccc12)C(=O)N[C@@H](Cc1c[nH]c2ccccc12)C(=O)N1CCC[C@H]1C(=O)N[C@@H](Cc1c[nH]c2ccccc12)C(=O)N[C@@H](CCCNC(=N)N)C(=O)N[C@@H](CCCNC(=N)N)C(N)=O [SEQ ID NO: 2] | 64 µg/mL (≈ 33.6 µM) | 4 µg/mL (≈ 2.1 µM) | 32 µg/mL (≈ 16.8 µM) | 16 µg/mL (≈ 8.39 µM) | 16 µg/mL (≈ 8.39 µM) | – | – | – | – | – | – | – | – | – | Inhibition of IL-8 ([2]; SEQ ID NO: 2 0.1 μg/ml): 6.8 ± 9.6%; Inhibition of IL-8 ([2]; SEQ ID NO: 2 1 μg/ml): 12.8 ± 24.5%; Inhibition of IL-8 ([2]; SEQ ID NO: 2 10 μg/ml): 29.0 ± 26.0%; Inhibition of IL-8 ([2]; SEQ ID NO: 2 50 μg/ml): 39.8 ± 1.6%; Inhibition of IL-8 ([2]; SEQ ID NO: 2 100 μg/ml): 45.0 ± 3.5% |
| CC[C@H](C)[C@H](NC(=O)[C@@H]1CCCN1C(=O)[C@H](CS)NC(=O)[C@H](CCCNC(=N)N)NC(=O)[C@@H](N)CC(C)C)C(=O)N[C@@H](C)C(=O)N1CCC[C@H]1C(=O)N[C@H](C(=O)N[C@H](C(=O)N1CCC[C@H]1C(=O)N[C@H](C(=O)N[C@@H](CS)C(=O)N[C@@H](CCCCN)C(=O)N[C@@H](CCCCN)C(=O)O)C(C)C)[C@@H](C)CC)C(C)C [SEQ ID NO: 6] (H-LRCPIAPVIPVCKK-OH; N-terminus and C-terminus assumed) | 64 µg/mL (≈ 41.6 µM) | 128 µg/mL (≈ 83.3 µM) | – | – | 128 µg/mL (≈ 83.3 µM) | 40% | 0.181 ng/mL | 59.8 ± 1.2% | 2.57 ± 0.72 × 10^4 CFU/ml | 0.97 ± 0.02 OD490 nm | 64 µg/mL (≈ 41.6 µM) | 17% | 1.98 ± 0.05 × 10^2 CFU/ml | 3/4 | OD490 nm (WST-1 cell viability) [7]: 1.81 ± 0.05 OD490 nm; MIC, S. aureus ([1]; Staphylococcus aureus, overnight, 96-well plate): > |
| CSCC[C@H](NC(=O)[C@H](CO)NC(=O)[C@@H](NC(=O)[C@H](CCCCN)NC(=O)[C@H](Cc1ccccc1)NC(=O)[C@H](CS)NC(=O)[C@H](CO)NC(=O)[C@H](CCCNC(=N)N)NC(=O)[C@@H](N)CCCCN)C(C)C)C(=O)N[C@@H](CCCNC(=N)N)C(=O)NCC(=O)N[C@H](C(=O)N[C@@H](CO)C(=O)N[C@@H](CCCNC(=N)N)C(=O)N[C@@H](CCCNC(=N)N)C(=O)N[C@@H](CCCNC(=N)N)C(=O)N[C@@H](CS)C(=O)N[C@@H](CCCCN)C(=O)O)C(C)C [SEQ ID NO: 27] (H-KRSCFKVSMRGVSRRRCK-OH; N-terminus and C-terminus assumed) | 2 µg/mL (≈ 0.915 µM) | 8 µg/mL (≈ 3.66 µM) | 64 µg/mL (≈ 29.3 µM) | 64 µg/mL (≈ 29.3 µM) | 16 µg/mL (≈ 7.32 µM) | 20% | 0.346 ng/mL | 51.1 ± 2.8% | 1.01 ± 0.26 × 10^5 CFU/ml | 0.91 ± 0.04 OD490 nm | 4 µg/mL (≈ 1.83 µM) | 50% | 2.25 ± 0.1 × 10^2 CFU/ml | 3/4 | OD490 nm (WST-1 cell viability) ([7]; 100 μg/ml, 24 hours, no peptide control 1.63 ± 0.16): 1.63 ± 0.03 OD490 nm |
